# Data as given in patent US11534457B2, “Use of dextran sulfate” (priority 2017, dated 2022).
# Test system: severe traumatic brain injury (sTBI)
# Assay: sTBI in rats, brain gene expression arrays and pathway analysis (Example 9)
# Format: in vivo, Male Wistar rats
# Parameters: key to z score, canonical pathway Dendritic Cell Maturation / z score, canonical pathway Adrenomedullin Signaling pathway / z score, canonical pathway Endothelin-1 Signaling / effect on canonical pathway Adrenomedullin Signaling pathway / effect on canonical pathway Endothelin-1 Signaling / effect on canonical pathway Dendritic Cell Maturation / Ingenuity canonical pathway Adrenomedullin signaling pathway, z score / Ingenuity canonical pathway FLT3 Signaling in Hematopoietic Progenitor Cells, z score / Ingenuity canonical pathway Opioid Signaling Pathway, z score / Ingenuity canonical pathway VDR/RXR Activation, z score / Ingenuity canonical pathway Neuropathic Pain Signaling In Dorsal Horn Neurons, z score / Ingenuity canonical pathway STAT3 Pathway, z score / Ingenuity canonical pathway IL-1 Signaling, z score / Ingenuity canonical pathway IL-6 Signaling, z score / Ingenuity canonical pathway NF-κB Signaling, z score / Ingenuity canonical pathway Role of NFAT in Cardiac Hypertrophy, z score / Ingenuity canonical pathway PPARα/RXRα Activation, z score: *: ambiguous effect
# Settings: TBI + 5 mg/kg LMW-DS
# Method: The experimental protocol used in this study was approved by the Ethical Committee of the Catholic University of Rome, according to international standards and guidelines for animal care. Male Wistar rats of 300-350 g body weight were fed with standard laboratory diet and water ad libitum in a controlled environment. As the anesthetic mixture, the animals received 35 mg/kg b.w. ketamine and 0.25 mg/kg body weight midazolam by i.p. injection. Severe traumatic brain injury (sTBI) was induced by dropping a 450 g weight from 2 m height on to the rat head that had been protected by a metal disk previously fixed on the skull, according to the “weight drop” impact acceleration model (Marmarou et al., A new model of diffuse brain injury in rats. Part I: Pathophysiology and biomechanics. J Neurosurg. 1994; 80: 291-300). […] At the end of each period of treatment, rats were anesthetized again and then immediately sacrificed.
# LMW-DS (Tikomed AB) was provided at a stock concentration of 20 mg/ml and was kept in a temperature-monitored refrigerator at 4° C. LMW-DS aliquots were diluted to the appropriate dosing concentration in sterile saline prior to delivery of a single subcutaneous injection.
# Three doses of LMW-DS were administered subcutaneously 30 minutes post-TBI. The animals were sacrificed at 2 days post-TBI. The animals were divided into the following subgroups:
# Three doses of LMW-DS were administered subcutaneously 30 minutes post-TBI. The animals were sacrificed at 7 days post-TBI. The animals were divided into the following subgroups:
# An in vivo craniectomy was performed on all animals during anesthesia. After carefully removing the rat's skull, the brain was exposed and removed with a surgical spatula and quickly dropped in RNALater and preserved at 4° C. for further processing.
# RNA extraction and array processing was carried out by SourceBioscience. The arrays used were the Agilent Rat expression arrays.
# Statistical analysis was carried out using the Metaboanalyst software package. Gene expression changes of 10% with a p<0.05 were regarded as significant.
# Pathway analysis of the differentially regulated genes was carried out using the Ingenuity pathway analysis package. The analysis was performed with special reference to pathways and molecular processes and diseases associated with neurodegenerative disease, including dementia, Alzheimer's disease, ALS, TBI and stroke, and with scarring and fibrosis, including glaucoma and normal pressure hydrocephalus (NPH) after subarachnoid haemorrhage.
# [1] = 7 days after TBI, relative to control
substance,measurement,setting,value
low molecular weight dextran sulfate [LMW-DS],"Ingenuity canonical pathway PPARα/RXRα Activation, z score",[1],*
same,"Ingenuity canonical pathway Phospholipase C Signaling, z score",[1],1
same,"Ingenuity canonical pathway Production of Nitric Oxide and Reactive Oxygen Species in Macrophages, z score",[1],2.236
same,"Ingenuity canonical pathway Protein Kinase A Signaling, z score",[1],−1.342
same,"Ingenuity canonical pathway Role of NFAT in Cardiac Hypertrophy, z score",[1],*
same,"Ingenuity canonical pathway Role of NFAT in Regulation of the Immune Response, z score",[1],2.53
same,"Ingenuity canonical pathway STAT3 Pathway, z score",[1],*
same,"Ingenuity canonical pathway Signaling by Rho Family GTPases, z score",[1],1
same,"Ingenuity canonical pathway Synaptic Long Term Depression, z score",[1],1
same,"Ingenuity canonical pathway VDR/RXR Activation, z score",[1],*
same,"Ingenuity canonical pathway Wnt/β-catenin Signaling, z score",[1],−1
same,"Ingenuity canonical pathway cAMP-mediated signaling, z score",[1],−2
same,Diseases or functions annotation: Apoptosis,"after 7 days, TBI: Activated",Inhibited
same,Diseases or functions annotation: Apoptosis of tumor cell lines,"after 7 days, TBI: Activated",Inhibited
same,Diseases or functions annotation: Bleeding,"after 7 days, TBI: Activated",Inhibited
same,Diseases or functions annotation: Breast or colorectal cancer,"after 7 days, TBI: Activated",Inhibited
same,Diseases or functions annotation: Breast or ovarian cancer,"after 7 days, TBI: Activated",Inhibited
same,Diseases or functions annotation: Cell death,"after 7 days, TBI: Activated",Activated
same,Diseases or functions annotation: Cell death of epithelial cells,"after 7 days, TBI: Activated",Activated
same,Diseases or functions annotation: Cell death of tumor cell lines,"after 7 days, TBI: Activated",Inhibited
same,Diseases or functions annotation: Development of sensory organ,"after 7 days, TBI: Activated",Activated
same,Diseases or functions annotation: Digestive organ tumor,"after 7 days, TBI: Activated",Inhibited
same,Diseases or functions annotation: Extracranial solid tumor,"after 7 days, TBI: Activated",Activated
same,Diseases or functions annotation: Failure of kidney,"after 7 days, TBI: Activated",Activated
same,Diseases or functions annotation: Formation of eye,"after 7 days, TBI: Activated",Activated
same,Diseases or functions annotation: Gastrointestinal tumor,"after 7 days, TBI: Activated",Inhibited
same,Diseases or functions annotation: Glucose metabolism disorder,"after 7 days, TBI: Activated",Activated
same,Diseases or functions annotation: Hematologic cancer,"after 7 days, TBI: Activated",Inhibited
same,Diseases or functions annotation: Hematologic cancer of cells,"after 7 days, TBI: Activated",Inhibited
same,Diseases or functions annotation: Hematopoietic neoplasm,"after 7 days, TBI: Activated",Inhibited
same,Diseases or functions annotation: Intestinal tumor,"after 7 days, TBI: Activated",Inhibited
same,Diseases or functions annotation: Lymphatic system tumor,"after 7 days, TBI: Activated",Inhibited
same,Diseases or functions annotation: Lymphocytic cancer,"after 7 days, TBI: Activated",Inhibited
same,Diseases or functions annotation: Lymphocytic neoplasm,"after 7 days, TBI: Activated",Inhibited
same,Diseases or functions annotation: Lymphoid cancer,"after 7 days, TBI: Activated",Inhibited
same,Diseases or functions annotation: Lymphoma,"after 7 days, TBI: Activated",Inhibited
same,Diseases or functions annotation: Lymphoproliferative disorder,"after 7 days, TBI: Activated",Inhibited
same,Diseases or functions annotation: Lymphoreticular neoplasm,"after 7 days, TBI: Activated",Inhibited
same,Diseases or functions annotation: Morbidity or mortality,"after 7 days, TBI: Activated",Inhibited
same,Diseases or functions annotation: Necrosis,"after 7 days, TBI: Activated",Activated
same,Diseases or functions annotation: Necrosis of epithelial tissue,"after 7 days, TBI: Activated",Activated
same,Diseases or functions annotation: Neoplasia of leukocytes,"after 7 days, TBI: Activated",Inhibited
same,Diseases or functions annotation: Obesity,"after 7 days, TBI: Activated",Activated
same,Diseases or functions annotation: Organismal death,"after 7 days, TBI: Activated",Inhibited
same,Diseases or functions annotation: Peripheral vascular disease,"after 7 days, TBI: Activated",Activated
same,Diseases or functions annotation: Renal impairment,"after 7 days, TBI: Activated",Activated
same,Diseases or functions annotation: Sensory system development,"after 7 days, TBI: Activated",Inhibited
same,Diseases or functions annotation: Skin lesion,"after 7 days, TBI: Activated",Inhibited
same,Diseases or functions annotation: Skin tumor,"after 7 days, TBI: Activated",Inhibited
same,Diseases or functions annotation: Abdominal adenocarcinoma,"after 7 days, TBI: Inhibited",Activated
same,Diseases or functions annotation: Abdominal cancer,"after 7 days, TBI: Inhibited",Inhibited
same,Diseases or functions annotation: Abdominal carcinoma,"after 7 days, TBI: Inhibited",Inhibited
same,Diseases or functions annotation: Abdominal neoplasm,"after 7 days, TBI: Inhibited",Activated
same,Diseases or functions annotation: Adenocarcinoma,"after 7 days, TBI: Inhibited",Inhibited
same,Diseases or functions annotation: Angiogenesis,"after 7 days, TBI: Inhibited",Activated
same,Diseases or functions annotation: Breast or pancreatic cancer,"after 7 days, TBI: Inhibited",Inhibited
same,Diseases or functions annotation: Cancer,"after 7 days, TBI: Inhibited",Activated
same,Diseases or functions annotation: Cancer of cells,"after 7 days, TBI: Inhibited",Activated
same,Diseases or functions annotation: Cancer of secretory structure,"after 7 days, TBI: Inhibited",Activated
same,Diseases or functions annotation: Carcinoma,"after 7 days, TBI: Inhibited",Inhibited
same,Diseases or functions annotation: Cell cycle progression,"after 7 days, TBI: Inhibited",Activated
same,Diseases or functions annotation: Cell movement,"after 7 days, TBI: Inhibited",Activated
same,Diseases or functions annotation: Cell movement of endothelial cells,"after 7 days, TBI: Inhibited",Activated
same,Diseases or functions annotation: Cell movement of myeloid cells,"after 7 days, TBI: Inhibited",Activated
same,Diseases or functions annotation: Cell movement of tumor cell lines,"after 7 days, TBI: Inhibited",Activated
same,Diseases or functions annotation: Cell survival,"after 7 days, TBI: Inhibited",Activated
same,Diseases or functions annotation: Cell viability,"after 7 days, TBI: Inhibited",Activated
same,Diseases or functions annotation: Cell viability of tumor cell lines,"after 7 days, TBI: Inhibited",Activated
same,Diseases or functions annotation: Cellular homeostasis,"after 7 days, TBI: Inhibited",Activated
same,Diseases or functions annotation: Chemotaxis,"after 7 days, TBI: Inhibited",Activated
same,Diseases or functions annotation: Concentration of lipid,"after 7 days, TBI: Inhibited",Inhibited
same,Diseases or functions annotation: Development of body axis,"after 7 days, TBI: Inhibited",Activated
same,Diseases or functions annotation: Development of body trunk,"after 7 days, TBI: Inhibited",Activated
same,Diseases or functions annotation: Development of connective tissue cells,"after 7 days, TBI: Inhibited",Activated
same,Diseases or functions annotation: Development of epithelial tissue,"after 7 days, TBI: Inhibited",Activated
same,Diseases or functions annotation: Development of genitourinary system,"after 7 days, TBI: Inhibited",Inhibited
same,Diseases or functions annotation: Development of head,"after 7 days, TBI: Inhibited",Activated
same,Diseases or functions annotation: Development of neurons,"after 7 days, TBI: Inhibited",Activated
same,Diseases or functions annotation: Development of vasculature,"after 7 days, TBI: Inhibited",Activated
same,Diseases or functions annotation: Differentiation of bone,"after 7 days, TBI: Inhibited",Activated
same,Diseases or functions annotation: Differentiation of bone cells,"after 7 days, TBI: Inhibited",Activated
same,Diseases or functions annotation: Differentiation of connective tissue cells,"after 7 days, TBI: Inhibited",Activated
same,Diseases or functions annotation: Digestive system cancer,"after 7 days, TBI: Inhibited",Inhibited
same,Diseases or functions annotation: Endocrine gland tumor,"after 7 days, TBI: Inhibited",Inhibited
same,Diseases or functions annotation: Expression of RNA,"after 7 days, TBI: Inhibited",Activated
same,Diseases or functions annotation: Genital tumor,"after 7 days, TBI: Inhibited",Activated
same,Diseases or functions annotation: Genitourinary carcinoma,"after 7 days, TBI: Inhibited",Activated
same,Diseases or functions annotation: Genitourinary tumor,"after 7 days, TBI: Inhibited",Activated
same,Diseases or functions annotation: Growth of connective tissue,"after 7 days, TBI: Inhibited",Inhibited
same,Diseases or functions annotation: Growth of epithelial tissue,"after 7 days, TBI: Inhibited",Inhibited
same,Diseases or functions annotation: Growth of tumor,"after 7 days, TBI: Inhibited",Activated
same,Diseases or functions annotation: Head and neck cancer,"after 7 days, TBI: Inhibited",Inhibited
same,Diseases or functions annotation: Head and neck tumor,"after 7 days, TBI: Inhibited",Inhibited
same,Diseases or functions annotation: Invasion of cells,"after 7 days, TBI: Inhibited",Activated
same,Diseases or functions annotation: Leukocyte migration,"after 7 days, TBI: Inhibited",Activated
same,Diseases or functions annotation: Malignant genitourinary solid tumor,"after 7 days, TBI: Inhibited",Activated
same,Diseases or functions annotation: Malignant solid tumor,"after 7 days, TBI: Inhibited",Activated
same,Diseases or functions annotation: Microtubule dynamics,"after 7 days, TBI: Inhibited",Activated
same,Diseases or functions annotation: Migration of cells,"after 7 days, TBI: Inhibited",Activated
same,Diseases or functions annotation: Migration of endothelial cells,"after 7 days, TBI: Inhibited",Activated
same,Diseases or functions annotation: Neoplasia of cells,"after 7 days, TBI: Inhibited",Activated
same,Diseases or functions annotation: Non-hematological solid tumor,"after 7 days, TBI: Inhibited",Activated
same,Diseases or functions annotation: Non-melanoma solid tumor,"after 7 days, TBI: Inhibited",Activated
same,Diseases or functions annotation: Nonhematologic malignant neoplasm,"after 7 days, TBI: Inhibited",Inhibited
